pIC50: −log10 of the molar value. Where a name gives a salt, the structure may show the parent alone.
System: Notch 1 intracellular domain
Assay: Ability of compounds to block Notch signaling: Western analysis of active Notch 1 protein (Notch 1 intracellular domain) in SUP-T1 cells
Assay type: cell-based
Conditions: Homo sapiens; T lymphoblast SUP-T1 cells, 12-16 h with compound; Western blot with antibody to cleaved Notch 1 (Val 1744), band of approximately 100 kDa; read-out: estimated IC50
Protocol: T lymphoblast SUP-T1 cells (CRL-1942, ATCC, Manassas, Va.) are routinely cultured in culture medium comprising RPMI-1640 (Invitrogen, Carlsbad, Calif.) supplemented with 10% Fetal Bovine serum (Sigma Chemical Co., St. Louis, Mo.) and 2 mM glutamine (Invitrogen, Carlsbad, Calif.) and grown at 37° C. at 95%/5% (v/v) air/CO2 in 95% relative humidity (standard cell culture conditions). Cells in culture medium are plated into flat-bottomed tissue culture plates (Corning Costar, Acton, Mass.) Subsequently, a compound of Formula (1) or vehicle (e.g., 0.1% (v/v) DMSO) may be added and plates are incubated for a further 12-16 h under standard cell culture conditions. Subsequently, the presence of active Notch 1 protein (Notch 1 intracellular domain) is determined by Western analysis according to conventional methods. Immunoblotting is performed using a primary antibody to cleaved Notch 1 (Val 1744; Cell Signaling Technology, Danvers, Mass.) and a goat anti-rabbit horseradish peroxidase conjugated secondary antibody (Santa Cruz Biotechnology, Santa Cruz, Calif.). For Western blotting, equal amounts of protein extracted from each sample (20 μg) are loaded into pre-cast 4-12% NuPAGE Tris-Glycine gels (Invitrogen, Carlsbad, Calif.). Proteins are separated by SDS-PAGE and transferred electrophoretically to polyvinylidene diflouride membranes (Invitrogen, Carlsbad, Calif.) using a semi-dry blotter. The membrane is washed briefly in Tris-buffered saline (TBS) (Bio-Rad Laboratories, Hercules, Calif.) and blocked for 1 h in TBS supplemented with 0.05% (v/v) Tween 20 (TBST) and 5% (w/v) dried milk, before being incubated for ˜12 h with primary antibody in TBS supplemented with 0.05% (v/v) Tween 20 (TBST) and 5% (w/v) dried milk. Following washing in TBST, the membrane is incubated with secondary antibody as indicated prior to visualization via enhanced chemiluminescent detection using DuraWest reagent (Pierce Biotechnology, Rockford, Ill.) and is detected with Amersham Hyperfilm MP according to the manufacturer's instructions. […]

In order of rising pIC50:
1. C[C@H](NC(=O)Cc1cc(F)cc(F)c1)C(=O)N[C@@H]1C(=O)Nc2ccccc2S[C@@H]1c1ccsc1 [Example 100, N^2-[(3,5-Difluorophenyl)acetyl]-N^1-[(2R,3R)-4-oxo-2-(3-thienyl)-2,3,4,5-tetrahydro-1,5-benzothiazepin-3-yl]-L-alaninamide]  7.30
2. C[C@H](NC(=O)Cc1ccccc1F)C(=O)N[C@@H]1C(=O)Nc2ccccc2O[C@@H]1c1ccccc1 [Example 114, N^2-[(2-Fluorophenyl)acetyl]-N^1-[(2R,3S)-4-oxo-2-phenyl-2,3,4,5-tetrahydro-1,5-benzoxazepin-3-yl]-L-alaninamide]  7.78
3. C[C@H](NC(=O)Cc1cc(F)cc(F)c1)C(=O)N[C@@H]1C(=O)Nc2cc(F)ccc2O[C@@H]1c1ccccc1 [Example 75, N^2-[(3,5-Difluorophenyl)acetyl]-N^1-[(2R,3S)-7-fluoro-4-oxo-2-phenyl-2,3,4,5-tetrahydro-1,5-benzoxazepin-3-yl]-L-alaninamide]  8.40

System: not given
Assay: not given
Conditions: not given

Compared with N[C@@H](Cc1ccccc1)C(=O)N(C(=O)Cc1cc(F)cc(F)c1)[C@@H]1C(=O)Nc2ccccc2S[C@@H]1c1ccccc1 [Example 105, N-[(3,5-Difluorophenyl)acetyl]-N-[(2R,3R)-4-oxo-2-phenyl-2,3,4,5-tetrahydro-1,5-benzothiazepin-3-yl]-L-phenylalaninamide], O=C(Cc1cc(F)cc(F)c1)N[C@@H](Cc1cc2ccccc2[nH]1)C(=O)N[C@@H]1C(=O)Nc2ccccc2S[C@@H]1c1ccccc1 [Example 110, N^2-[(3,5-Difluorophenyl)acetyl]-3-(1H-indol-2-yl)-N^1-[(2R,3R)-4-oxo-2-phenyl-2,3,4,5-tetrahydro-1,5-benzothiazepin-3-yl]-L-alaninamide] is lower in melting point: 115 to 120 °C for the first, 85 to 90 °C for the second.

First: C[C@H](NCCc1ccccc1)C(=O)N[C@@H]1C(=O)Nc2ccccc2S[C@@H]1c1ccccc1 (as salt: hydrochloride) [Example 98, N^1-[(2R,3R)-4-Oxo-2-phenyl-2,3,4,5-tetrahydro-1,5-benzothiazepin-3-yl]-N^2-(2-phenylethyl)-L-alaninamide]
Second: C[C@H](NC(=O)Cc1ccccc1)C(=O)N[C@@H]1C(=O)Nc2ccccc2S[C@@H]1c1ccccc1 [Example 97, N^1-[(2R,3R)-4-Oxo-2-phenyl-2,3,4,5-tetrahydro-1,5-benzothiazepin-3-yl]-N^2-(phenylacetyl)-L-alaninamide]
The melting point of the first is higher: 184 to 195 °C for the first, 114 to 124 °C for the second.

C[C@H](NC(=O)Cc1ccccc1F)C(=O)N[C@@H]1C(=O)Nc2ccccc2O[C@@H]1c1ccccc1 [Example 114, N^2-[(2-Fluorophenyl)acetyl]-N^1-[(2R,3S)-4-oxo-2-phenyl-2,3,4,5-tetrahydro-1,5-benzoxazepin-3-yl]-L-alaninamide] and C[C@H](NC(=O)Cc1ccccc1)C(=O)N[C@@H]1C(=O)Nc2ccccc2O[C@@H]1c1ccccc1 [Example 113, N^1-[(2R,3S)-4-Oxo-2-phenyl-2,3,4,5-tetrahydro-1,5-benzoxazepin-3-yl]-N^2-(phenylacetyl)-L-alaninamide] cannot be ordered by melting point: 115 to 135 °C for the first, 122 to 136 °C for the second.

C[C@H](NC(=O)Cc1ccc(F)cc1)C(=O)N[C@@H]1C(=O)Nc2ccccc2O[C@@H]1c1ccccc1 [Example 116, N^2-[(4-Fluorophenyl)acetyl]-N^1-[(2R,3S)-4-oxo-2-phenyl-2,3,4,5-tetrahydro-1,5-benzoxazepin-3-yl]-L-alaninamide] and C[C@H](NC(=O)Cc1cccc(F)c1)C(=O)N[C@@H]1C(=O)Nc2ccccc2O[C@@H]1c1ccccc1 [Example 115, N^2-[(3-Fluorophenyl)acetyl]-N^1-[(2R,3S)-4-oxo-2-phenyl-2,3,4,5-tetrahydro-1,5-benzoxazepin-3-yl]-L-alaninamide] fall in the same range of melting point: 130 to 140 °C for the first, 130 to 140 °C for the second.

Compared with CC(C)[C@H](NC(=O)Cc1cc(F)cc(F)c1)C(=O)N[C@@H]1C(=O)Nc2ccccc2S[C@@H]1c1ccccc1 [Example 107, N^2-[(3,5-Difluorophenyl)acetyl]-N^1-[(2R,3R)-4-oxo-2-phenyl-2,3,4,5-tetrahydro-1,5-benzothiazepin-3-yl]-L-valinamide], CSCC[C@H](NC(=O)Cc1cc(F)cc(F)c1)C(=O)N[C@@H]1C(=O)Nc2ccccc2S[C@@H]1c1ccccc1 [Example 109, N^2-[(3,5-Difluorophenyl)acetyl]-N^1-[(2R,3R)-4-oxo-2-phenyl-2,3,4,5-tetrahydro-1,5-benzothiazepin-3-yl]-L-methioninamide] is lower in melting point: 110 to 115 °C for the first, 85 to 90 °C for the second.

First: O=C(Cc1cc(F)cc(F)c1)NCC(=O)N[C@@H]1C(=O)Nc2ccccc2S[C@@H]1c1ccccc1 [Example 106, N^2-[(3,5-Difluorophenyl)acetyl]-N^1-[(2R,3R)-4-oxo-2-phenyl-2,3,4,5-tetrahydro-1,5-benzothiazepin-3-yl]glycinamide]
Second: C[C@H](NC(=O)Cc1cc(F)cc(F)c1)C(=O)N[C@@H]1C(=O)Nc2ccccc2S[C@@H]1c1ccsc1 [Example 100, N^2-[(3,5-Difluorophenyl)acetyl]-N^1-[(2R,3R)-4-oxo-2-(3-thienyl)-2,3,4,5-tetrahydro-1,5-benzothiazepin-3-yl]-L-alaninamide]
The melting point of the first is higher: 125 to 130 °C for the first, 117 to 122 °C for the second.

First: C[C@H](NC(=O)Cc1cc(F)cc(F)c1)C(=O)N[C@@H]1C(=O)Nc2ccccc2S[C@@H]1c1ccco1 [Example 101, N^2-[(3,5-Difluorophenyl)acetyl]-N^1-[(2S,3R)-2-(2-furyl)-4-oxo-2,3,4,5-tetrahydro-1,5-benzothiazepin-3-yl]-L-alaninamide]
Second: C[C@H](NC(=O)Cc1cc(F)cc(F)c1)C(=O)N[C@@H]1C(=O)Nc2ccccc2S[C@H]1c1ccoc1 [Example 102, N^2-[(3,5-Difluorophenyl)acetyl]-N^1-[(2S,3R)-2-(3-furyl)-4-oxo-2,3,4,5-tetrahydro-1,5-benzothiazepin-3-yl]-L-alaninamide]
The melting point of the first is higher: 125 to 130 °C for the first, 115 to 120 °C for the second.

First: C[C@H](NC(=O)Cc1cc(F)cc(F)c1)C(=O)N[C@@H]1C(=O)Nc2ccccc2S[C@@H]1c1cc(Br)cs1 [Example 104, N^1-[(2S,3R)-2-(4-Bromo-2-thienyl)-4-oxo-2,3,4,5-tetrahydro-1,5-benzothiazepin-3-yl]-N^2-[(3,5-difluorophenyl)acetyl]-L-alaninamide]
Second: C[C@H](NC(=O)Cc1cc(F)cc(F)c1)C(=O)N[C@@H]1C(=O)Nc2ccccc2S[C@@H]1c1ccc(Br)s1 [Example 103, N^1-[(2S,3R)-2-(5-Bromo-2-thienyl)-4-oxo-2,3,4,5-tetrahydro-1,5-benzothiazepin-3-yl]-N^2-[(3,5-difluorophenyl)acetyl]-L-alaninamide]
The melting point of the first is higher: 145 to 155 °C for the first, 139 to 140 °C for the second.

First: C[C@H](NC(=O)Cc1cc(F)cc(F)c1)C(=O)N[C@@H]1C(=O)NCCS[C@@H]1c1ccccc1 [Example 7, N^2-[(3,5-Difluorophenyl)acetyl]-N^1-[(6R,7R)-5-oxo-7-phenyl-1,4-thiazepan-6-yl]-L-alaninamide]
Second: C[C@H](NC(=O)Cc1cc(F)cc(F)c1)C(=O)N[C@@H]1C(=O)Nc2ccccc2S[C@@H]1c1cccs1 [Example 99, N^2-[(3,5-Difluorophenyl)acetyl]-N^1-[(2S,3R)-4-oxo-2-(2-thienyl)-2,3,4,5-tetrahydro-1,5-benzothiazepin-3-yl]-L-alaninamide]
The melting point of the first is higher: 128 to 133 °C for the first, 117 to 119 °C for the second.

From patent publication US20090054398A1, “CHEMICAL COMPOUNDS” (ASTRAZENECA AB, priority 2006, published 2009)
